Measured values from patent US6475724B1, “Nucleic acids, kits, and methods for the diagnosis, prognosis and treatment of glaucoma and related disorders” (The Regents of the University of California, priority 1997, dated 2002).
“Also recorded” adds a separate entry of the source.

B1: SEQ ID NO: 37: 283 bp region from 5340 to 5044 of SEQ ID NO: 3, TIGR 5′ regulatory region (nucleic acid, listed as Homo sapiens)
DNA: AACTATTATTGGGGTATGGGTGCATAAATTGGGATGTTCTTTTTAAAAAGAAACTCCAAACAGACTTCTGGAAGGTTATTTTCTAAGAATCTTGCTGGCAGCGTGAAGGCAACCCCCCTGTGCACAGCCCCACCCAGCCTCACGTGGCCACCTCTGTCTTCCCCCATGAAGGGCTGGCTCCCCAGTATATATAAACCTCTCTGGAGCTCGGGCATGAGCCAGCAAGGCCACCCATCCAGGCACCTCTCAGCACAGCAGAGCTTTCCAGAGGAAGCCTCACCAA

Columns and labels:
TIGR gene = assay: Induction of the TIGR gene by stress stimulants; type: cell-based
[1] = IOP response to topical dexamethasone eye drops, Armaly criteria; type: in vivo, human; settings: topical dexamethasone eye drops (0.1%) four times a day for four weeks; one line per subject (subjects 1-7); pre- vs post-treatment IOP
Procedure: Subjects are given standard topical dexamethasone eye drops (0.1%) four times a day, for four weeks. Pre-treatment and post-treatment IOP readings are taken and patients are classified as having high (>16 mmHg), intermediate (6-16 mmHg) or low (<6 mmHg) IOP responses under the “Armaly” criteria. DNA samples are obtained from four subjects having high or intermediate IOP changes. Samples from several non-responder patients were also taken. The DNA samples were analyzed for the presence of the TIGRmt11 variant sequence, as discussed above.

HTM cells = assay: TIGR 5′ region/promoter AP reporter activity in HTM cells; type: cell-based, human; settings: attached reporter gene
Procedure: The 283 base 5′ fragment of the TIGR 5′ region (SEQ ID NO: 37) is amplified from genomic DNA of a normal human subject as discusssed in Example 3. The DNA is cloned into a pSEAP vector (Clontech, Calif.) so that transcription was under the control of the TIGR sequences. More specifically, pSEAP2-enhancer vector is digested with Srfl to produce a blunt end. The 283 bp fragment is blunt end ligated to the vector using T4 ligase for 2 hours. The vector is transfected into DH5 cells to establish a plasmid clone, TMRE-1/pSEAP. PCR sequencing is used to verify the clone sequence as correct. Similarly, the equivalent genomic fragment amplified from a steroid responder sample, identified as mutant TIGR.mt11, is cloned in pSEAP2-enhancer and called clone TIGR.mt11/pSEAP.
HTM cells, Cos cells (COS-7), and HeLa cells (HeLa 229) are seeded at 10^6 cells per well and incubated with 1 ug of the plasmid DNA to transfect using Lipofectin reagent (GIBCO, Life Technologies, Md.). Some samples of cells were also treated with dexamethasone (DEX). Then, 24, 48, and 72 hours after transfection, AP activity was measured. Cells are collected using a buffer containing L-homoarginine and the chemiluminescent substrate CSPD and a chemiluminescent enhancer added to the samples. The expression levels are then recorded using a luminometer or by brief exposure to X-ray film. […]

Molecule	induction of TIGR gene (TIGR gene)	also measured
OO [H2O2]	induced	–
CCCCCCCCCCCCCC(=O)O[C@@H]1[C@@H](C)[C@@]2(O)[C@@H](C=C(CO)C[C@]3(O)C(=O)C(C)=C[C@@H]23)[C@H]2C(C)(C)[C@]12OC(C)=O [TPA, 12-O-tetradecanolyphorbol-13-acetate]	induced	–
C[C@@H]1C[C@H]2[C@@H]3CCC4=CC(=O)C=C[C@]4(C)[C@@]3(F)[C@@H](O)C[C@]2(C)[C@@]1(O)C(=O)CO [dexamethasone]	–	CS-IOP Response [1]: Low (low (<6 mmHg)); also recorded: Intermediate (intermediate (6-16 mmHg)); also recorded: High (high (>16 mmHg))
B1	–	expression of AP activity, HTM cells compared with HeLa or Cos cells (HTM cells): much higher
